According to US20100099640A1, “TISSUE DEGENERATION PROTECTION” (priority 2007, published 2010):

Key:
[1] = Body weight of DKO mice during the 12-week treatment period; assay type: in vivo, mouse; conditions: stevioside 10 mg/kg orally for 12 weeks (12 to 24 weeks of age); placebo 43%
Method: (§1) Homozygous LDL-receptor-knockout mice (LDLR^(−/−)), heterozygous ob/+, and C57BL6 mice were purchased from Jackson Laboratory, Bar Harbor, Me. LDLR^(−/−) mice were backcrossed into a C57BL6 background to the 10th generation. To obtain DKO mice with combined leptin deficiency (ob/ob) and LDL-receptor deficiency, LDLR^(−/−) and ob/+ mice were crossed. All offspring were genotyped by polymerase chain reaction (PCR) techniques. All mice were housed at 22° C. on a fixed 12/12-hour light/dark cycle. Experimental procedures in animals were performed in accordance with protocols approved by the Institutional Animal Care and Research Advisory Committee. All mice were fed standard chow containing 4% fat (Pavan Service). Food intake was ≈5.7 g/d. Mice (about 50 g) were treated with stevioside (N=14; 10 mg/kg), steviol (N=9; 5 mg/kg) or placebo (N=17) for 12 weeks between 12 and 24 weeks of age. Stevioside (Molecular weight: 804) was dissolved in water (1 mg/ml) and 500 μl of the solution was administered orally. Steviol (Molecular weight: 318) was dissolved in water containing 6% NaHCO3 (1 mg/ml) and 250 μl of the solution was administered orally.

bacteria of the colon = conditions: cited from earlier work
[2] = system: atherosclerotic plaques of DKO mice; test: Atherosclerosis: morphometric and immunohistochemical analysis of aortic root cross sections of DKO mice; assay type: in vivo, mouse; conditions: stevioside 10 mg/kg or steviol 5 mg/kg orally, 12 weeks
Method: as §1
The extent of atherosclerosis was determined by analysis of cross sections from the aortic root. Approximately ten 7-μm frozen sections per staining per animal were used for morphometric and immunohistochemical analysis. Total plaque areas were measured on hematoxylin and eosin stained sections. Lipids were stained with oil-red O, and macrophage areas were stained with an antibody against mouse Mac-3 antigen (Pharmingen), and oxidized LDL with the monoclonal antibody 4E6. Blinded analysis of positive immunostained sections was performed with the Quantimet600 image analyzer (Leica).

[3] = system: Chinese hypertensive men and women; conditions: cited from earlier work
[4] = system: everted gastrointestinal sacs of rats and Caco-2 cell layers; conditions: everted gastrointestinal sacs of rats, Caco-2 cell layers; cited from earlier work
[5] = system: RNA expression in white visceral (intra-abdominal) adipose tissue; test: Real-time RT-PCR of RNA expression in white visceral adipose tissue of treated DKO mice; assay type: in vivo, mouse
Method: as §1
The level of RNA expression in extracts of white visceral (intra-abdominal) adipose tissue and aortic arch was measured by real-time reverse transcription (RT)-PCR. Total RNA was extracted with the Trizol reagent (InVitrogen) and purified on an RNeasy kit column (Qiagen). First-strand cDNA was generated from total RNA by RT using random primers from Takara and Superscript III reverse transcriptase (InVitrogen). Quantitative real-time PCR was performed using SybrGreen master mix according to the supplier protocols (Applied Biosystems).). Oligonucleotides (InVitrogen) used as forward primer (F) and reverse primer (R) were: for mouse PPARalpha: F: 5′-[…]-3′; R: 5′-[…]-3′; for mouse PPARgamma: F: 5′-[…]-3′; R: 5′-GTCAGCGGGTGGGACTTTC-3′; for mouse FABP4: F: 5′-AACTGGGCGTGGAATTCG-3′; R: 5′-[…]-3′; for mouse iNOS: F: 5′-[…]-3′; R: 5′-[…]-3′; for mouse GLUT-4: F: 5′-[…]-3′; R: 5′-[…]-3′; for mouse IRS-1: F: 5′-[…]-3′; R: 5′-CGCCTCGGGAAGAGACAGT-3′; for mouse IRS-2: F: 5′-[…]-3′: R: 5′-[…]-3′; for mouse LXRalpha: F: 5′-[…]-3′; R: 5′-[…]-3′; for mouse SOD1: F: 5′-[…]-3′; R: 5′-[…]-3′; for mouse SOD2: F: 5′-TCGGTGGCGTTGAGATTGT; R: 5′-[…]-3′; for mouse SOD3: F: 5′-[…]-3′; R: 5′-GCTGCCGGAAGAGAACCAA-3′; and for mouse β-actin (housekeeping gene), F: 5′-[…]-3′; R: 5′-[…]-3′. The level of mRNA expression was calculated using the threshold cycle (Ct) value, i.e., the number of PCR cycles at which the fluorescent signal during the PCR reaches a fixed threshold. For each sample, the Ct both for the gene of interest and for the housekeeping gene β-actin were determined to calculate ΔCt,sample (Ct,target gene−Ct,housekeeping gene), thus normalizing the data and correcting for differences in amount and/or quality between the different RNA samples. The expression levels were related to an external calibrator consisting of intra-abdominal adipose tissue from C57BL6 control mice. Subsequently, ΔΔCt (ΔCt,sample−ΔCt,calibrator) was determined, and the relative expression levels were calculated from 2^−ΔΔCt according to the manufacturer's instructions (Applied Biosystems). RNA expression levels are thus indicated as arbitrary units ±SD

[6] = adipose tissue, stevioside 10 mg/kg orally, 12 weeks
[7] = adipose tissue, treatment with stevioside

expression of catalase [5, 7]: increased expression
expression of the insulin receptor (INSR) [5, 7]: increased expression
SMILES: C=C1C[C@@]23CC[C@H]4C(C)(CCC[C@@]4(C)C(=O)O[C@@H]4O[C@H](CO)C(O)[C@H](O)C4O)[C@@H]2CCC1(OC1O[C@H](CO)C(O)C(O)C1OC1O[C@H](CO)C(O)[C@H](O)C1O)C3 (stereo in doubt) [stevioside, Kaur-16-en-18-oic acid, 13-[(2-O-b-D-glucopyranosyl-b-D-glucopyranosyl)oxy]-, b-D-glucopyranosyl ester, (4a)-]
increase of weight during the treatment period [1]: 41%
degradation by bacteria of the colon (bacteria of the colon): degraded
lipid deposition in plaques [2]: reducing
macrophage deposition in plaques [2]: reducing
oxLDL deposition in plaques [2]: reducing
plaque volume [2]: lowered
smooth muscle cell (SMC)-to-macrophage ratio (proxy for plaque stability) [2]: increased
lowering of systolic and diastolic blood pressure ([3]; 750 mg or 1500 mg of stevioside a day for one or two years): about 7%
fasting glucose concentrations ([3]; long-term administration, volunteers with normal glucose levels): did not reveal effects
uptake by the intestinal tract [4]: extremely low
LPL expression ([5]; adipose tissue of stevioside-treated mice): not associated with a change
expression of FABP-4 [5, 6]: increased expression
expression of GLUT-4 [5, 6]: increased expression
expression of IRS-1 [5, 6]: increased expression
expression of IRS-2 [5, 6]: increased expression
expression of LXRalpha [5, 6]: increased expression
expression of PPARalpha [5, 6]: increased expression
expression of PPARgamma [5, 6]: increased expression
expression of the antioxidant SOD3 [5, 6]: increased expression
expression of CD36 [5, 7]: increased expression
